The results in this text go back to patent US20190327965A1, “AGENTS AND METHODS FOR TREATMENT OF PATHOGENS” (Hexima Limited, priority 2014, published 2019).

The subject of assay [1] is Colletotrichum graminicola.
For another assay, the system named is Saccharomyces cerevisiae. As to the kind of experiment: Growth inhibition by hairpin peptide alone, Saccharomyces cerevisiae. Particulars: hairpin peptide on its own. The assay is classed as cell-based. The text has this: Some α-hairpinin and β-hairpin peptides show efficacy on their own against pathogens at a concentration higher than the concentration used in a combination with a plant defensin.

The structures appear in SMILES notation. Bridge positions count the residues as written; N and C are the ends. Peptide text beside a SMILES is read from it.

For orientation: IC50 means the concentration needed to halve the response being measured. On to `CC[C@H](C)[C@@H]1NC(=O)[C@H](CCCCN)NC(=O)[C@H]([C@@H](C)CC)NC(=O)[C@H](CCC(N)=O)NC(=O)[C@H](CCCNC(=N)N)NC(=O)[C@@H](NC(=O)[C@@H](NC(=O)[C@H](CO)NC(=O)[C@@H](N)CCCNC(=N)N)C(C)C)CSSC[C@@H](C(=O)N[C@H](C(=O)N[C@@H](CC(N)=O)C(=O)N[C@@H](CCCNC(=N)N)C(=O)N2CCC[C@H]2C(=O)N[C@@H](Cc2ccc(O)cc2)C(=O)O)[C@@H](C)O)NC(=O)[C@H](CCCCN)NC(=O)[C@H](Cc2ccc(O)cc2)NC(=O)[C@H](Cc2ccc(O)cc2)NC(=O)[C@@H]2CSSC[C@H](NC1=O)C(=O)N[C@@H](CCCNC(=N)N)C(=O)N[C@@H](CCCNC(=N)N)C(=O)N[C@@H](CCCNC(=N)N)C(=O)NCC(=O)NCC(=O)N2` [Androctonin] (H-RSVCRQIKICRRRGGCYYKCTNRPY-OH; disulfide 4-20, 10-16 (inferred); N-terminus and C-terminus assumed), for which the IC50 worked out at 7 µM in the assay with Candida albicans, 7 µM in the assay on Fusarium graminearum, 1000 nM in the assay on Trichophyton rubrum and 13 µM in assay [1].
For the molecule `CSCC[C@@H]1NC(=O)[C@H](CCCNC(=N)N)NC(=O)[C@@H](NC(=O)[C@H](Cc2c[nH]c3ccccc23)NC(=O)[C@H](CCC(N)=O)NC(=O)[C@H](CC(C)C)NC(=O)[C@H](CC(=O)O)NC(=O)CNC(=O)[C@@H](N)CCCCN)CSSC[C@@H](C(=O)N[C@@H](CCCNC(=N)N)C(=O)N[C@@H](CCC(N)=O)C(=O)N[C@@H](CCCNC(=N)N)C(=O)N[C@@H](Cc2c[nH]cn2)C(=O)N[C@@H](CCCNC(=N)N)C(=O)NCC(=O)O)NC(=O)[C@H](CCC(=O)O)NC(=O)[C@H](CCCNC(=N)N)NC(=O)[C@H](CCC(=O)O)NC(=O)[C@@H]2CSSC[C@H](NC(=O)CNC1=O)C(=O)N[C@@H](CCC(N)=O)C(=O)N[C@@H](Cc1c[nH]c3ccccc13)C(=O)N[C@@H](CCC(N)=O)C(=O)N[C@@H](Cc1ccc(O)cc1)C(=O)NCC(=O)N[C@@H](CCCCN)C(=O)N[C@@H](CC(=O)O)C(=O)N[C@@H](CCC(N)=O)C(=O)NCC(=O)N[C@@H](CCCNC(=N)N)C(=O)N[C@@H](CCCNC(=N)N)C(=O)N[C@@H](CO)C(=O)N[C@@H](CCC(=O)O)C(=O)N2` [Sit_HPN_100A] (H-KGDLQWCRMGCQWQYGKDQGRRSECERECRQRHRG-OH; disulfide 7-29, 11-25 (inferred); N-terminus and C-terminus assumed), the IC50 is 8 µM in the assay on Candida albicans; 8 µM in the assay on Saccharomyces cerevisiae; 8 µM with Fusarium graminearum; 20000 nM in the assay with Trichophyton rubrum; 14 µM in assay [1].
Regarding `CC(C)[C@@H]1NC(=O)[C@H](CCCNC(=N)N)NC(=O)[C@H](Cc2ccccc2)NC(=O)[C@@H](NC(=O)[C@H](Cc2c[nH]c3ccccc23)NC(=O)[C@H](CCCNC(=N)N)NC(=O)[C@@H](N)CCCNC(=N)N)CSSC[C@@H](C(=O)N[C@@H](CCCNC(=N)N)C(N)=O)NC(=O)[C@H](CCCCN)NC(=O)[C@H](CCCNC(=N)N)NC(=O)[C@H](Cc2ccc(O)cc2)NC(=O)[C@@H]2CSSC[C@H](NC1=O)C(=O)N[C@@H](Cc1ccc(O)cc1)C(=O)N[C@@H](CCCNC(=N)N)C(=O)NCC(=O)N[C@@H](Cc1ccccc1)C(=O)N2` [Polyphemusin I] (H-RRWCFRVCYRGFCYRKCR-NH2; disulfide 4-17, 8-13; N-terminus and C-terminus assumed), the IC50 in the assay on Candida albicans turned out to be 4 µM; with Fusarium graminearum, 3 µM; in the assay on Trichophyton rubrum it was 1000 nM; in assay [1] it was 6 µM.
